Assay results as given in US6355799B1, “Substituted benzene compounds, process for their preparation, and herbicidal and defoliant compositions containing them” (ISK Americas Incorporated, priority 1997, dated 2002).

Columns and labels:
Type in all cases: in vivo
[1] = tested on: sicklepod (Cassia obtusifolia, CASOB); assay: Pre-emerge test, greenhouse herbicide activity screening; conditions: pre-emerge, 14 days after application, scale 0-100
Procedure, shortened: (§1)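 Fourteen days after spraying, crop and weed injury was graded visually from 0, no effect, to 100, every plant dead. Test substances were dissolved in acetone and applied at 15–1000 g ai/ha with a flat-fan nozzle. Application was either pre-emergence, one day after sowing, or post-emergence at the 2–3 leaf stage.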

[2] = tested on: johnsongrass (Sorghum halepense, SORHA); assay: as above; conditions: pre-emerge, 14 days after application, scale 0-100
Procedure, shortened: as §1

[3] = tested on: ivyleaf morningglory (Ipomoea hederacea, IPOHE); assay: as above; conditions: pre-emerge, 14 days after application, scale 0-100
Procedure, shortened: as §1

[4] = tested on: barnyardgrass (Echinochloa crus-galli, ECHCG); assay: as above; conditions: pre-emerge, 14 days after application, scale 0-100
Procedure, shortened: as §1

[5] = tested on: velvetleaf (Abutilon theophrasti, ABUTH); assay: as above; conditions: pre-emerge, 14 days after application, scale 0-100
Procedure, shortened: as §1

[6] = tested on: lambsquarters (Chenopodium album, CHEAL); assay: as above; conditions: pre-emerge, 14 days after application, scale 0-100
Procedure, shortened: as §1

[7] = tested on: large crabgrass (Digitaria sanguinalis, DIGSA); assay: as above; conditions: pre-emerge, 14 days after application, scale 0-100
Procedure, shortened: as §1

[8] = tested on: green foxtail (Setaria viridis, SETVI); assay: as above; conditions: pre-emerge, 14 days after application, scale 0-100
Procedure, shortened: as §1

[9] = tested on: upland rice (Oryza sp., var. Tebonnet, RICE); assay: Pre-emerge test, crop safety; conditions: pre-emerge, 14 days after application, scale 0-100
Procedure, shortened: (§2)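 Plants grown in 10 cm pots of sandy loam mix received acetone-dissolved compounds through a moving flat-fan nozzle. Doses ranged from 15 to 1000 g ai/ha. Pre-emerge pots were seeded one day earlier, post-emerge pots 8–21 days earlier. Fourteen days on, each pot was graded 0–100 for damage.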

[10] = tested on: field corn (Zea mays L., var. Dekalb 535, CORN); assay: Pre-emerge test, crop safety; conditions: pre-emerge, 14 days after application, scale 0-100
Procedure, shortened: as §2

[11] = tested on: redroot pigweed (Amaranthus retroflexus, AMARE); assay: Pre-emerge test, greenhouse herbicide activity screening; conditions: pre-emerge, 14 days after application, scale 0-100
Procedure, shortened: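 Sandy loam pots; pre-emerge: sown 1 d pre-spray, surface-watered after, then bottom-watered. Post-emerge: sown 8–21 d before, 2–3 leaf stage, + 0.25% v/v NIS, bottom-watered. Acetone, 187 l/ha track spray, 15–1000 g ai/ha. 0–100 injury score, day 14.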

[12] = tested on: sicklepod (Cassia obtusifolia, CASOB); assay: Post-emerge test, greenhouse herbicide activity screening; conditions: post-emerge, 14 days after application, rating scale 0-100
Procedure, shortened: as §2

[13] = tested on: common ragweed (Ambrosia artemisizfolia L., AMBEL); assay: as above; conditions: post-emerge, 14 days after application, rating scale 0-100
Procedure, shortened: as §2

[14] = tested on: johnsongrass (Sorghum halepense, SORHA); assay: as above; conditions: post-emerge, 14 days after application, rating scale 0-100
Procedure, shortened: as §2

[15] = tested on: ivyleaf morningglory (Ipomoea hederacea, IPOHE); assay: as above; conditions: post-emerge, 14 days after application, rating scale 0-100
Procedure, shortened: as §2

[16] = tested on: barnyardgrass (Echinochloa crus-galli, ECHCG); assay: as above; conditions: post-emerge, 14 days after application, rating scale 0-100
Procedure, shortened: as §2

[17] = tested on: redroot pigweed (Amaranthus retroflexus, AMARE); assay: as above; conditions: post-emerge, 14 days after application, rating scale 0-100
Procedure, shortened: as §2

[18] = tested on: velvetleaf (Abutilon theophrasti, ABUTH); assay: as above; conditions: post-emerge, 14 days after application, rating scale 0-100
Procedure, shortened: as §2

[19] = tested on: lambsquarters (Chenopodium album, CHEAL); assay: as above; conditions: post-emerge, 14 days after application, rating scale 0-100
Procedure, shortened: as §2

[20] = tested on: large crabgrass (Digitaria sanguinalis, DIGSA); assay: as above; conditions: post-emerge, 14 days after application, rating scale 0-100
Procedure, shortened: as §2

[21] = tested on: green foxtail (Setaria viridis, SETVI); assay: as above; conditions: post-emerge, 14 days after application, rating scale 0-100
Procedure, shortened: as §2

[22] = tested on: upland rice (Oryza sp., var. Tebonnet, RICE); assay: Post-emerge test, crop safety; conditions: post-emerge, 14 days after application, rating scale 0-100
Procedure, shortened: as §1

[23] = tested on: field corn (Zea mays L., var. Dekalb 535, CORN); assay: Post-emerge test, crop safety; conditions: post-emerge, 14 days after application, rating scale 0-100
Procedure, shortened: as §1

COc1c(Cl)cc(F)c(-n2c(=O)cc(C(F)(F)F)n(C)c2=O)c1NC(=O)Cc1ccccc1 [2-151]
80: phytotoxicity rating CHEAL ([6]; 250 g ai/ha)
20: AMBEL phytotoxicity rating ([13]; 63 g ai/ha) | AMARE phytotoxicity rating ([17]; 250 g ai/ha)
30: phytotoxicity rating ABUTH ([5]; 63 g ai/ha) | phytotoxicity rating RICE (crop damage) ([9]; 250 g ai/ha) | phytotoxicity rating CORN (crop damage) ([10]; 250 g ai/ha) | AMBEL phytotoxicity rating ([13]; 250 g ai/ha) | IPOHE phytotoxicity rating ([15]; 63 g ai/ha)
10: CASOB phytotoxicity rating ([12]; 63 g ai/ha) | AMARE phytotoxicity rating ([17]; 63 g ai/ha) | CHEAL phytotoxicity rating ([19]; 63 g ai/ha) | CHEAL phytotoxicity rating ([19]; 250 g ai/ha) | RICE phytotoxicity rating (crop damage) ([22]; 250 g ai/ha)
40: phytotoxicity rating SORHA ([2]; 250 g ai/ha) | phytotoxicity rating IPOHE ([3]; 250 g ai/ha) | phytotoxicity rating DIGSA ([7]; 250 g ai/ha)
0: phytotoxicity rating CASOB ([1]; 63 g ai/ha) | phytotoxicity rating SORHA ([2]; 63 g ai/ha) | phytotoxicity rating IPOHE ([3]; 63 g ai/ha) | phytotoxicity rating ECHCG ([4]; 63 g ai/ha) | phytotoxicity rating ECHCG ([4]; 250 g ai/ha) | phytotoxicity rating CHEAL ([6]; 63 g ai/ha) | phytotoxicity rating DIGSA ([7]; 63 g ai/ha) | phytotoxicity rating SETVI ([8]; 63 g ai/ha) | phytotoxicity rating SETVI ([8]; 250 g ai/ha) | phytotoxicity rating RICE (crop damage) ([9]; 63 g ai/ha) | phytotoxicity rating CORN (crop damage) ([10]; 63 g ai/ha) | phytotoxicity rating AMARE ([11]; 63 g ai/ha) | phytotoxicity rating AMARE ([11]; 250 g ai/ha) | SORHA phytotoxicity rating ([14]; 63 g ai/ha) | SORHA phytotoxicity rating ([14]; 250 g ai/ha) | ECHCG phytotoxicity rating ([16]; 63 g ai/ha) | ECHCG phytotoxicity rating ([16]; 250 g ai/ha) | ABUTH phytotoxicity rating ([18]; 63 g ai/ha) | DIGSA phytotoxicity rating ([20]; 63 g ai/ha) | DIGSA phytotoxicity rating ([20]; 250 g ai/ha) | SETVI phytotoxicity rating ([21]; 63 g ai/ha) | SETVI phytotoxicity rating ([21]; 250 g ai/ha) | RICE phytotoxicity rating (crop damage) ([22]; 63 g ai/ha) | CORN phytotoxicity rating (crop damage) ([23]; 63 g ai/ha) | CORN phytotoxicity rating (crop damage) ([23]; 250 g ai/ha)
70: phytotoxicity rating CASOB ([1]; 250 g ai/ha)
100: phytotoxicity rating ABUTH ([5]; 250 g ai/ha) | IPOHE phytotoxicity rating ([15]; 250 g ai/ha)
50: CASOB phytotoxicity rating ([12]; 250 g ai/ha) | ABUTH phytotoxicity rating ([18]; 250 g ai/ha)
